Activity calls are given as the source filed them.
Assays:
Cytochrome P450 2C9 = Cytochrome P450 2C9 (Homo sapiens, UniProt P11712)
Cytochrome P450 3A4 = Cytochrome P450 3A4 (Homo sapiens, UniProt P08684);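 further: CYP3A4 tested as one member of a cytochrome P450 panel screen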
Hexokinase HKDC1 = molecular target: T1, Hexokinase HKDC1 (Homo sapiens, UniProt Q2TB90); test: activation of HKDC1 glucose phosphorylation – biochemical, W721R variant, dose response (AID 504730); assay type: functional
T1 sequence (Q2TB90 whole entry): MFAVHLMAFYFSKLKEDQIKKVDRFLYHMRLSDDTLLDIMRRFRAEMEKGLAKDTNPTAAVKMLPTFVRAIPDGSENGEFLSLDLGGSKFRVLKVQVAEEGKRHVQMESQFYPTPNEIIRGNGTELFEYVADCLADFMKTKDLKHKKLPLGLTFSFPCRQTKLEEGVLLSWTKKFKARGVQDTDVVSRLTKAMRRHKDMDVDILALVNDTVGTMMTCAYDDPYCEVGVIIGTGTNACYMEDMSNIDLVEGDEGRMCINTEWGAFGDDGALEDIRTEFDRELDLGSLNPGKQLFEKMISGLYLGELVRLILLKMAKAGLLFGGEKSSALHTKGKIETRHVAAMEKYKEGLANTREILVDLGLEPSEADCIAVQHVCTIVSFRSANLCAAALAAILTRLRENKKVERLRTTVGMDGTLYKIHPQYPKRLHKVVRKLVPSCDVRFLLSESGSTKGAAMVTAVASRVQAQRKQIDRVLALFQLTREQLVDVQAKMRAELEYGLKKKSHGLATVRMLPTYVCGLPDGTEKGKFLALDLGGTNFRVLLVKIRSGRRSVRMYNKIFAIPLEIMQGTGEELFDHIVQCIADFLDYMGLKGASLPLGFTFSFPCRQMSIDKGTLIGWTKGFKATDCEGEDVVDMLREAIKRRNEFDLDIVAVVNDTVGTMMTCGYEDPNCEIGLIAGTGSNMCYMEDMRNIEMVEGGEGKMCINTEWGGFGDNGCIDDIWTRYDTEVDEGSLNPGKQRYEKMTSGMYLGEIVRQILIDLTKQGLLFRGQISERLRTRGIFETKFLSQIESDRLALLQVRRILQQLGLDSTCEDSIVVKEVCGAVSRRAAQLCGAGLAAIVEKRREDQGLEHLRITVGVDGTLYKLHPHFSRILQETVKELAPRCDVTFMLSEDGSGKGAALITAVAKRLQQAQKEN

Hexokinase-1 = molecular target: T2, Hexokinase-1 (Homo sapiens, UniProt P19367); test: HK1 enzyme activation by HKDC1 hits – biochemical, selectivity assay for HKDC1 activator project, dose response (AID 504762); assay type: functional
T2 sequence (P19367 whole entry): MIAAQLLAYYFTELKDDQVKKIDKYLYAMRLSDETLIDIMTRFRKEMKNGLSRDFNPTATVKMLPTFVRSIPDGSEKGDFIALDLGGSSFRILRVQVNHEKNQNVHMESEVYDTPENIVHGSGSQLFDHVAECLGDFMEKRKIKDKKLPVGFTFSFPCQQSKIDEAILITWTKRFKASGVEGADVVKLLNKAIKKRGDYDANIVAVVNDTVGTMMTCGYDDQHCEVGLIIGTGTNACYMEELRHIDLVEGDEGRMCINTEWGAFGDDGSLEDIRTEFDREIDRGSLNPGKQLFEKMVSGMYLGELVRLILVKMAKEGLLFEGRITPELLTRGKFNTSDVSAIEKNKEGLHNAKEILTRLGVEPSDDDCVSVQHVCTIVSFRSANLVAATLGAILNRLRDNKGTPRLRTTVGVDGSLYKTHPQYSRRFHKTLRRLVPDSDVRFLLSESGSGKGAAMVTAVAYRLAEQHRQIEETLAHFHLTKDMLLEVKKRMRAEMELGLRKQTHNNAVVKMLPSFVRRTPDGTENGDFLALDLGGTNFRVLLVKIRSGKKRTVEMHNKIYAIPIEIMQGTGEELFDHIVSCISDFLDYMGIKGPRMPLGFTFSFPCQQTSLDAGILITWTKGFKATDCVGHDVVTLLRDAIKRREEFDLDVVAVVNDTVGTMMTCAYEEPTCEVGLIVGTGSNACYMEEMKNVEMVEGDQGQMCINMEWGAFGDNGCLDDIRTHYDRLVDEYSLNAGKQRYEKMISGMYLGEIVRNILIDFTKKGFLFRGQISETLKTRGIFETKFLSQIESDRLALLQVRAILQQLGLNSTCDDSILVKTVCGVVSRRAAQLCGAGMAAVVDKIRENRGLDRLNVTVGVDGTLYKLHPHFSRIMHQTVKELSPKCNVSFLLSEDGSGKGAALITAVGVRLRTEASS

Cytochrome P450 2D6 = Cytochrome P450 2D6 (Homo sapiens, UniProt P10635);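 further: CYP2D6 member of a cytochrome P450 panel assay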
Chain of Cytochrome P450 2D6 (P10635 whole entry): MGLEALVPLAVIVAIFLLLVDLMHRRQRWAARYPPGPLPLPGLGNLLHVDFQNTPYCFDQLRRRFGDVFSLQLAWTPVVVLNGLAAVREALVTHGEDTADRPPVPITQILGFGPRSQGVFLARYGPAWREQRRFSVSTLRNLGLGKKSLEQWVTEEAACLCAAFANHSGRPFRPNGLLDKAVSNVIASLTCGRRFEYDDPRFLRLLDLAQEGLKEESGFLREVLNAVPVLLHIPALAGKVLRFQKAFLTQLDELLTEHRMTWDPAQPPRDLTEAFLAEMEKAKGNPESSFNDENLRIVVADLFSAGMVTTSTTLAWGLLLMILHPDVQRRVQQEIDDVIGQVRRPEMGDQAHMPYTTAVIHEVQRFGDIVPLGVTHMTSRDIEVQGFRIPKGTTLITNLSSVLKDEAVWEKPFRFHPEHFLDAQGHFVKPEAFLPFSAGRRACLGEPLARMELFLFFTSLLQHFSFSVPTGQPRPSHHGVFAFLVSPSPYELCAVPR

[1] = molecular target: T3, Corticotropin-releasing factor receptor 2/Corticotropin-releasing factor-binding protein (Homo sapiens, UniProt P24387+Q13324); test: activators of CRF receptor 2 with binding protein – uHTS hits, confirmation (AID 602473); assay type: functional; details: read-out: EC50_Mean
T3 sequence (Q13324 whole entry): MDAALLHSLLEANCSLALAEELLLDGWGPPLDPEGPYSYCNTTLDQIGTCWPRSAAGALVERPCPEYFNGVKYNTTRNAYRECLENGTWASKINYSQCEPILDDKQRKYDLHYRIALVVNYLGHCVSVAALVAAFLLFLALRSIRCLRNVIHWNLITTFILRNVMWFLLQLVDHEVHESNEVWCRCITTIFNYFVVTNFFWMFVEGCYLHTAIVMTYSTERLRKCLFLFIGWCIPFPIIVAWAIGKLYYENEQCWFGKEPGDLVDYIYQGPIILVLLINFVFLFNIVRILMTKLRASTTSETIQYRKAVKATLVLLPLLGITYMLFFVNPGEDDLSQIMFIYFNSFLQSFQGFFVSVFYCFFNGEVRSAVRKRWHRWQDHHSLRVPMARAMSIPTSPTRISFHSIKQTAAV
T3 sequence (P24387 whole entry): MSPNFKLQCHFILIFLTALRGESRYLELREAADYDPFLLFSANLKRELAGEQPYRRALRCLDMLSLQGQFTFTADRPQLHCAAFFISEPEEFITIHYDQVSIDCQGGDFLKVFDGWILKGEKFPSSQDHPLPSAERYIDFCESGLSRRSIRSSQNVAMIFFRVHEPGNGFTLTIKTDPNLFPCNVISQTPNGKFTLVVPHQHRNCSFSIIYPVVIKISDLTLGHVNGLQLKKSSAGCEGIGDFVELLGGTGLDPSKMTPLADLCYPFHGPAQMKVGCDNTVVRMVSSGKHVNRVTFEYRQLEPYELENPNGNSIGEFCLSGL

Troponin, cardiac muscle = Troponin, cardiac muscle (Homo sapiens, UniProt P19429+P45379+P63316); test: Fluorescence-based biochemical high throughput dose response assay for activators of the calcium sensitivity of cardiac Regulated Thin Filaments (RTF). [Related pubchem assays (depositor defined):AID493008, AID493018, AID504382, AID504383]; assay type: protein-complex assay
[2] = molecular target: T4, Endoribonuclease toxin MazF (Escherichia coli K-12, UniProt P0AE70); test: activation of MazEF endoribonuclease cleavage – biochemical, fluorescence, single-stranded RNA substrate, uHTS hits, dose response (AID 588481); assay type: functional
T4 sequence (P0AE70 whole entry): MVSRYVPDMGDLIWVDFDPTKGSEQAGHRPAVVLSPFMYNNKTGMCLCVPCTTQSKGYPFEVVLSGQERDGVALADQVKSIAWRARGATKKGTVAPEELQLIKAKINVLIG

[3] = molecular target: T4, Endoribonuclease toxin MazF; test: substrate-only fluorescence increase artefacts – biochemical, single-stranded RNase substrate, counter-screen for MazEF activator project, dose response (AID 588502); assay type: functional
[4] = molecular target: T5, Mannose-6-phosphate isomerase (Homo sapiens, UniProt P34949); test: phosphomannose isomerase inhibition – biochemical, fluorescence intensity, confirmation (AID 1535)
T5 sequence (P34949 whole entry): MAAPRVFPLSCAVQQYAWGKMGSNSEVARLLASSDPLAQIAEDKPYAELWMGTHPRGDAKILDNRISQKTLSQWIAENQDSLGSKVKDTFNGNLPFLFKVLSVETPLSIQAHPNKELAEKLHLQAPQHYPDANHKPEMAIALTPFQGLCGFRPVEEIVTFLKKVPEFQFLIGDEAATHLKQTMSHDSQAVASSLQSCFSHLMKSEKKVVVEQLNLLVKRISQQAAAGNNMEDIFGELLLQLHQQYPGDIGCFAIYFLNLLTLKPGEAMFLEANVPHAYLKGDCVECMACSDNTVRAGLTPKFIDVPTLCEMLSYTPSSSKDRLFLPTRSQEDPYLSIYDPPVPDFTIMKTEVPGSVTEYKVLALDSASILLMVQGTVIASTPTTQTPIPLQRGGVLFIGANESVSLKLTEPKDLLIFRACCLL

Phosphomannomutase 2 = molecular target: T6, Phosphomannomutase 2 (Homo sapiens, UniProt O15305); test: Counter screen SAR assay for PMM2 inhibitors via a fluorescence intensity assay. [Related pubchem assays (depositor defined):AID1545, AID1574]
T6 sequence (O15305 whole entry): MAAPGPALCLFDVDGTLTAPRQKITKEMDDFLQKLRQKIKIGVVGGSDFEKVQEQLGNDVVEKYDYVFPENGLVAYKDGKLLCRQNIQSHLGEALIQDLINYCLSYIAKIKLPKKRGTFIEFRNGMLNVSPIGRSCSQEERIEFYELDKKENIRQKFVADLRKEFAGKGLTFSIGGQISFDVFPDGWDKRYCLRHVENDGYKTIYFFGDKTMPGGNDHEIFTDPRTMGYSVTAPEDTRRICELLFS

Cytochrome P450 2C19 = Cytochrome P450 2C19 (Homo sapiens, UniProt P33261); test: Cytochrome panel assay with activity outcomes. Panel member name: p450-cyp2c19 Compounds with AC50 equal or less than 10 uM are considered active; assay type: functional; details: read-out: AC50
Chain of Cytochrome P450 2C19 (P33261 whole entry): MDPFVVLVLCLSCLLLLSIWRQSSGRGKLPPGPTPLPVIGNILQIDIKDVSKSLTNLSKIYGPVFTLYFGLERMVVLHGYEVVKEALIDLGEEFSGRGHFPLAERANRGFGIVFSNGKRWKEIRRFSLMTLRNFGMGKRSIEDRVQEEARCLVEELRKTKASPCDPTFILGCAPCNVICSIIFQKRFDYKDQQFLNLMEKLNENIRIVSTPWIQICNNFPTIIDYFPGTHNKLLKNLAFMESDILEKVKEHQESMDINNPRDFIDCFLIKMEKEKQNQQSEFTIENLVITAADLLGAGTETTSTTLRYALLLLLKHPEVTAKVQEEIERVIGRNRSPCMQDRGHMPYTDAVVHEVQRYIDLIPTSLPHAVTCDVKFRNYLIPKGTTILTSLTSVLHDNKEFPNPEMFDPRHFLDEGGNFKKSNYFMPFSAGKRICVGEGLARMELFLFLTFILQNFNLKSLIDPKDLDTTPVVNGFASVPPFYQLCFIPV

Cytochrome P450 1A2 = molecular target: T7, Cytochrome P450 1A2 (Homo sapiens, UniProt P05177);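 further: PubChem cytochrome P450 panel assay, CYP1A2 panel member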
T7 sequence (P05177 whole entry): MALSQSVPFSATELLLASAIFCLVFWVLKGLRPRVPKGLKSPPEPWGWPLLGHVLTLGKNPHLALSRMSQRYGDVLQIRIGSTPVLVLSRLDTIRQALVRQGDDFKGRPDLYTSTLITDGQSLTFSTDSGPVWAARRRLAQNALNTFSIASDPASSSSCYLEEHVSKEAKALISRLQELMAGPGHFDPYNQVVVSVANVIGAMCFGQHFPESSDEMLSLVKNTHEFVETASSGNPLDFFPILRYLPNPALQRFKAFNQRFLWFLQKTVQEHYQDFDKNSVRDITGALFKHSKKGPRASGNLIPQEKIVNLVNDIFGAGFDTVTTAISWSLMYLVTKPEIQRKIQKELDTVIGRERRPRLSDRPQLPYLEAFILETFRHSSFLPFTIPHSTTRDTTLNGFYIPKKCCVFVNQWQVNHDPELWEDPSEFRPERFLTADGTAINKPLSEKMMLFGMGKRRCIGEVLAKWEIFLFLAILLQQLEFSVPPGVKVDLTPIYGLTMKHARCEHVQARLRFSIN

Vero = test: cells; assay type: functional; details: Chlorocebus sabaeus

Chain of Cytochrome P450 2C9 (P11712 whole entry): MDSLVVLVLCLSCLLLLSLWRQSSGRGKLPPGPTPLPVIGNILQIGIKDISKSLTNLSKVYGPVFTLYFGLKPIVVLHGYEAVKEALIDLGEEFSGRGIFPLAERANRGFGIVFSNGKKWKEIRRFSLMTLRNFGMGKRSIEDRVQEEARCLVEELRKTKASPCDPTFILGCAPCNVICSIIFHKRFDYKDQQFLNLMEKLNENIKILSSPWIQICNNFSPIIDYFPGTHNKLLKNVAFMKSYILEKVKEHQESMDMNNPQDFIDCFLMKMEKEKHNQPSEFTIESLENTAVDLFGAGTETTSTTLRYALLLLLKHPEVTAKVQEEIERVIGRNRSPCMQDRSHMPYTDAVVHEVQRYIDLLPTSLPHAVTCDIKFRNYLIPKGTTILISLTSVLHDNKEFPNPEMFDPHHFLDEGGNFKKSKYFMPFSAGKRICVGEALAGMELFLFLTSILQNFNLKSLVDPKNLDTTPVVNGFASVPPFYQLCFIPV
Chain of Cytochrome P450 3A4 (P08684 whole entry): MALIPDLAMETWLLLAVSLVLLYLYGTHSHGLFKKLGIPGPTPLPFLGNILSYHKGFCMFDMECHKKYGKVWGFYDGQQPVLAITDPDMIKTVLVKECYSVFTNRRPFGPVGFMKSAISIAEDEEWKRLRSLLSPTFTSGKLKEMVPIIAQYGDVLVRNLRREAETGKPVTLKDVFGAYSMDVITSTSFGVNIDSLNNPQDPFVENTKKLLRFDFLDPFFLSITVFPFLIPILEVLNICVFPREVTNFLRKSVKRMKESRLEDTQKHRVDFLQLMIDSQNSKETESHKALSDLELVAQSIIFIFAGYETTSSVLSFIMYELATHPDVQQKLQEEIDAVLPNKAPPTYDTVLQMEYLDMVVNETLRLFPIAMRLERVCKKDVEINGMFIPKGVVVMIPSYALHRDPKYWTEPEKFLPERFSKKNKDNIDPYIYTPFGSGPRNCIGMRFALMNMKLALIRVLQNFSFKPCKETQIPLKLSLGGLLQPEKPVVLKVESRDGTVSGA

SMILES: Cc1cc2cc(CNC(=O)CC(C)C)ccc2n1C
- AC50 (Cytochrome P450 2C9): inconclusive
- AC50 (Cytochrome P450 3A4): 15.8 µM (inconclusive)

SMILES: CCOC(=O)c1c(C)[nH]c(C2=NN=C(Nc3ccccc3)SC2)c1C
- EC50 (Hexokinase HKDC1): 24.3 µM (inactive)
- EC50 (Hexokinase-1): 18.2 µM (active)

SMILES: COc1ccc(OC)c(S(=O)(=O)N2CCC(C(=O)NCCc3ccccc3)CC2)c1
- AC50 (Cytochrome P450 2C9): inconclusive
- AC50 (Cytochrome P450 3A4): 39.8 µM (inconclusive)
- AC50 (Cytochrome P450 2D6): 2.24 µM (inconclusive)

SMILES: COc1ccc(OC)c(/C=C2\N=C(c3ccccc3)OC2=O)c1
- EC50 [1]: 2.29 µM (active)
- EC50 (Troponin, cardiac muscle): 2.58 µM (active)
- EC50 [2]: > 99 µM (inactive)
- EC50 [3]: 39.1 µM (inactive)

SMILES: Cc1cc2n(n1)SC(Nc1cccc3ccccc13)N2 (centres undefined)
- IC50 [4]: > 50 µM (inactive)
- IC50 (Phosphomannomutase 2): > 100 µM (inactive)

SMILES: COC(=O)c1ccccc1NC(=O)C(CCS(C)(=O)=O)NC(C)=O (centres undefined)
- AC50 (Cytochrome P450 2C19): 39.8 µM (inconclusive)
- AC50 (Cytochrome P450 2C9): inconclusive
- AC50 (Cytochrome P450 1A2): 20 µM (inconclusive)

SMILES: Cn1c(SSc2ccc(-c3cccnc3)n2C)ccc1-c1cccnc1
- EC50 (Hexokinase HKDC1): 14.8 µM (active)
- CC50 (Vero): 16.8 µM (active)
- EC50 (Hexokinase-1): 14.2 µM (active)

— ChEMBL document CHEMBL1201862, “PubChem BioAssay data set” (2004)
